Measurements as given in patent US20260308186A1, “STAT DEGRADERS AND USES THEREOF” (Recludix Pharma, Inc., priority 2023, published 2026).
Read-outs that look alike come from different tables or passages of the source.

What was measured:
pSTAT6 = target: T1, pSTAT6 (Homo sapiens, UniProt P42226); assay: MSD-pSTAT-PBMC Assay, pSTAT6 (IL-4 stimulated PBMC); type: cell-based
T1 construct: pY641-STAT6 MSD read-out
T1 sequence (P42226 1-847): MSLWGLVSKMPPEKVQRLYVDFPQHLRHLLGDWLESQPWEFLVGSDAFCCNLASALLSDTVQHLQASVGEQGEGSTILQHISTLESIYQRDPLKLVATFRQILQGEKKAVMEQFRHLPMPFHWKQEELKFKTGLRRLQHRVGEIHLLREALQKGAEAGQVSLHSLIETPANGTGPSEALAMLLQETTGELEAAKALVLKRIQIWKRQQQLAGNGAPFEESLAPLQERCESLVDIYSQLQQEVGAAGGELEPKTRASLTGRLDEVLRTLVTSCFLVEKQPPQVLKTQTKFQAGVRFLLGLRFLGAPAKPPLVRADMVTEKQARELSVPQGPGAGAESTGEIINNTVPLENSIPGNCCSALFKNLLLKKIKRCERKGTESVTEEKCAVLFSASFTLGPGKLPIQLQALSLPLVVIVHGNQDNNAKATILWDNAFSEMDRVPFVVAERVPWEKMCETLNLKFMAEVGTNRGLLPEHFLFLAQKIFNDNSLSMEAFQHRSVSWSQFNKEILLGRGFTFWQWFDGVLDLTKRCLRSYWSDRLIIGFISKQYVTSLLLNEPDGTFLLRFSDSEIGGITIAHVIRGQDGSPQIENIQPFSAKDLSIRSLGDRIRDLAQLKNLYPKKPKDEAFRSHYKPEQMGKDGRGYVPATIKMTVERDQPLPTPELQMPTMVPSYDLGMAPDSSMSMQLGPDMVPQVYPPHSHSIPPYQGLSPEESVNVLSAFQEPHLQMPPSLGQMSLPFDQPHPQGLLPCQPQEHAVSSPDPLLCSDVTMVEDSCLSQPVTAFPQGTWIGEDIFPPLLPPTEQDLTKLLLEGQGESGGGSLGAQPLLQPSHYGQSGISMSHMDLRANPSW
From the text: Cryopreserved Peripheral Blood Mononuclear Cells (PBMC) are from AllCells. Recombinant Human IL-4 and IL-6 are from Peprotech. Mouse monoclonal anti-STAT3 antibody, rabbit monoclonal anti-pY705-STAT3 antibody, rabbit monoclonal Anti-pY641-STAT6 antibody, and lysis buffer are from Cell Signaling Technology (CST). Mouse monoclonal anti-STAT6 antibody is from BioLegend. Assay plates, blocker, and anti-rabbit secondary antibody are from Meso Scale Discovery (MSD).
Cryopreserved PBMCs were thawed out and allowed to recover overnight in IMDM+10% heat-inactivated FBS prior to plating 50,000 (STAT3) or 25,000 (STAT6) cells per well in 96-well U-bottom tissue culture plates. Cells were treated with compound for 3 hrs. then stimulated with 10 ng/mL IL-6 (STAT3) or 1 ng/mL IL-4 (STAT6) for 10 min. Cells were then spun down and washed with ice-cold PBS prior to lysing the cell pellet with 1× lysis buffer (CST) with 1×HALT protease and phosphatase inhibitor cocktail (Thermo). Lysates were transferred to and incubated overnight at 4° C. with shaking in QuickPlex 96-well high bind assay plates (MSD) pre-coated overnight with 30 μL per well of 0.6 μg/mL mouse monoclonal anti-STAT3 antibody (STAT3) or 2 μg/mL mouse monoclonal anti-STAT6 antibody (STAT6) in 1×PBS, and pre-blocked for 1 hour with 3% Blocker-A (MSD). Captured protein in the assay plates were then washed and probed with 25 μL per well of 0.25 μg/ml rabbit monoclonal anti-pY705-STAT3 antibody (STAT3) or 0.18 μg/ml rabbit monoclonal Anti-pY641-STAT6 antibody (STAT6) in 1% Blocker-A for 1 hour at room temperature with shaking, then washed and probed with 25 ul per well of 1 ug/ml Sulfo-TAG Labeled Goat Anti-Rabbit Antibody (MSD) in 1% Blocker-A for 1 hour at room temperature with shaking. Assay plates were then washed and 150 μL of 1× Read Buffer-T (MSD) was added to each well prior to reading on an SQ120 MSD Plate Reader. Assay signal from each sample was subtracted by the signal from unstimulated control wells and normalized to DMSO control wells. IC50 values were calculated using Graph Pad Prism Dose-Response Nonlinear Regression with variable slope. For both pSTAT3 and pSTAT6 A=≤100 nM; B=>100-1000 nM; C=>1000-3000 nM; and D=>3 μM.

STAT6 = target: T2, STAT6 (Homo sapiens, UniProt P42226); assay: STAT6 Fluorescence Polarization (FP) Assay; type: binding
T2 construct: Recombinant STAT6 protein (STAT6(W123-T658))
T2 sequence (P42226 123-658): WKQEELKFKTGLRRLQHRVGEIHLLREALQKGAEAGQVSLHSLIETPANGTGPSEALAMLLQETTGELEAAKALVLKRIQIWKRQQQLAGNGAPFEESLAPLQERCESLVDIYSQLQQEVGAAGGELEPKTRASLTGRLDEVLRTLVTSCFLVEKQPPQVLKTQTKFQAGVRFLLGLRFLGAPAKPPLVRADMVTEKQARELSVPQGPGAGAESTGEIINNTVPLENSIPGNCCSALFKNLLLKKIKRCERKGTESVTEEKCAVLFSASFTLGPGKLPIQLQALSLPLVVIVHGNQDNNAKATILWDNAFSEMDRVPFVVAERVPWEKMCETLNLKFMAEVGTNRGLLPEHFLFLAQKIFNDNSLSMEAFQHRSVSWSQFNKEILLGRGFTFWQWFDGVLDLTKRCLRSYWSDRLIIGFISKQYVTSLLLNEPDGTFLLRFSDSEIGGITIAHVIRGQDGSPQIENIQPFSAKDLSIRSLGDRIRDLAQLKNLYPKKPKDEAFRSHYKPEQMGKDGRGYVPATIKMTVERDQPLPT
Method: STAT6 Fluorescence Polarization (FP) Assay
An FP assay was developed to determine IC50 values for test substances. Recombinant STAT6 protein (STAT6(W123-T658)) at 250 nM was combined with a fluorescently labeled, phosphotyrosine peptide probe (5-FAM-Ap[…]-NH2) at 2 nM in FP buffer (10 mM HEPES pH 7.4, 50 mM NaCl, 1 mM EDTA, 0.05% Tween 20, 2 mM DTT), 50 μL of STAT6-probe mixture was added to serial diluted compounds in black, 96-well plates (Greiner BioOne 655076) to a final concentration of 1% DMSO. Reaction components were mixed, and FP was measured after 45-minute incubation at room temperature using a Tecan Spark multimode plate reader. FP signal (mP) was plotted against the log concentration of the test substances and IC50 values were calculated by nonlinear regression analysis using GraphPad Prism software. For STAT6 FP assay. A=≤300 nM; B=>300-3000 nM; C=>3-30 μM; and D=>30 μM.

STAT3 = target: T3, STAT3 (Homo sapiens, UniProt P40763); assay: STAT3 Fluorescence Polarization (FP) Assay; type: binding
T3 construct: Recombinant STAT3 protein (STAT3(G127-1722))
T3 sequence (P40763 127-722 limits assumed): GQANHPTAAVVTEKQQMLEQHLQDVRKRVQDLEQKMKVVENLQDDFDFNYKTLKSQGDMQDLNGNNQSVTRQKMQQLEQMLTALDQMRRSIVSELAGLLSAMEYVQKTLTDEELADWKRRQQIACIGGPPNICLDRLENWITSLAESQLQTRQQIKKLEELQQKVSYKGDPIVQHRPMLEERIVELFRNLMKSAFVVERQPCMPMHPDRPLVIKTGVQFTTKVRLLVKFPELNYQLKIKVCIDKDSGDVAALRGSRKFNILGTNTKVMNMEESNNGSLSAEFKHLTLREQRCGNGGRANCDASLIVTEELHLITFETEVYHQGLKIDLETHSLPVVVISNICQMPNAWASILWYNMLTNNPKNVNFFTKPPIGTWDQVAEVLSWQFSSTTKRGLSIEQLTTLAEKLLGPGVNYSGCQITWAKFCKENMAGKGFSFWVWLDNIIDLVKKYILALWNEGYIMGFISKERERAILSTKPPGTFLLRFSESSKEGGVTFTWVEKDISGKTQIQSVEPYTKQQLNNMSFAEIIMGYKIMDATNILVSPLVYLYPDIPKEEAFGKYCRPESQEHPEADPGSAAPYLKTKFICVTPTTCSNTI
Method: STAT3 Fluorescence Polarization (FP) Assay
An FP assay was developed to determine IC50 values for test substances. Recombinant STAT3 protein (STAT3(G127-1722)) at 25 nM was combined with a fluorescently labeled, phosphotyrosine peptide probe (5-FAM-GpYLPQTV-NH2) at 2 nM in FP buffer (10 mM HEPES pH 7.4, 50 mM NaCl, 1 mM EDTA, 0.05% Tween 20.2 mM DTT). 50 μL of STAT3-probe mixture was added to serial diluted compounds in black, 96-well plates (Greiner BioOne 655076) to a final concentration of 1% DMSO. Reaction components were mixed, and FP was measured after 45-minute incubation at room temperature using a Tecan Spark multimode plate reader. FP signal (mP) was plotted against the log concentration of the test substances and IC50 values were calculated by nonlinear regression analysis using GraphPad Prism software. For STAT3 FP assay. A=≤100 nM; B=>100-1000 nM; C=>1-10 μM; and D=>10 μM.

[1] = read-out: pSTAT6 IC50, compound 3 hrs, then 1 ng/mL IL-4 for 10 min, pY641-STAT6
[2] = compound 3 hrs, then 1 ng/mL IL-4 for 10 min, pY641-STAT6, read-out: pSTAT6 IC50
[3] = recombinant STAT6(W123-T658) 250 nM, probe 5-FAM-Ap[…]-NH2 2 nM, 45 min, room temperature, read-out: STAT6 FP IC50
[4] = recombinant STAT3 25 nM, probe 5-FAM-GpYLPQTV-NH2 2 nM, 45 min, room temperature, read-out: STAT3 FP IC50

SMILES	IC50 (pSTAT6; [2]) [µM]	IC50 (STAT6; [3]) [µM]	IC50 (STAT3; [4]) [µM]	IC50 (pSTAT6; [1]) [µM]	IC50 (STAT6) [µM]	IC50 (STAT3) [µM]
Cc1ccc2[nH]nc(C(=O)N3CC[C@H]4CC[C@@H](C(=O)N(C)CCCCCCC#Cc5cccc6c5CN(C5CCC(=O)NC5=O)C6=O)N4C(=O)[C@@H](NC(=O)c4ccc5ccc(C(F)(F)P(=O)(O)O)cc5c4)C3)c2c1 (stereo partly drawn) [Compound 11, ((7-(((5S,8S,10aR)-8-((8-(2-(2,6-dioxopiperidin-3-yl)-1-oxoisoindolin-4-yl)oct-7-yn-1-yl)(methyl)carbamoyl)-3-(5-methyl-1H-indazole-3-carbonyl)-6-oxodecahydropyrrolo[1,2-a][1,5]diazocin-5-yl)carbamoyl)naphthalen-2-yl)difluoromethyl)phosphonic acid]				0.1 to 1	< 0.3	1 to 10
Cc1ccc2[nH]nc(C(=O)N3CC[C@H]4CC[C@@H](C(=O)N(C)CCCCCCC#Cc5cccc6c5CN(C5CCC(=O)NC5=O)C6=O)N4C(=O)[C@@H](NC(=O)c4ccc5ccc(C(F)P(=O)(O)O)cc5c4)C3)c2c1 (stereo partly drawn) [Compound 14, ((7-(((5S,8S,10aR)-8-((8-(2-(2,6-dioxopiperidin-3-yl)-1-oxoisoindolin-4-yl)oct-7-yn-1-yl)(methyl)carbamoyl)-3-(5-methyl-1H-indazole-3-carbonyl)-6-oxodecahydropyrrolo[1,2-a][1,5]diazocin-5-yl)carbamoyl)naphthalen-2-yl)fluoromethyl)phosphonic acid]				> 3	0.3 to 3	> 10
Cc1ccc2[nH]nc(C(=O)N3CC[C@H]4CC[C@@H](C(=O)N(C)CCCCCCC#Cc5cccc6c5CN(C5CCC(=O)NC5=O)C6=O)N4C(=O)[C@@H](NC(=O)c4ccc5ccc(CP(=O)(O)O)cc5c4)C3)c2c1 (stereo partly drawn) [Compound 15, ((7-(((5S,8S,10aR)-8-((8-(2-(2,6-dioxopiperidin-3-yl)-1-oxoisoindolin-4-yl)oct-7-yn-1-yl)(methyl)carbamoyl)-3-(5-methyl-1H-indazole-3-carbonyl)-6-oxodecahydropyrrolo[1,2-a][1,5]diazocin-5-yl)carbamoyl)naphthalen-2-yl)methyl)phosphonic acid]				> 3	0.3 to 3	> 10
Cc1ccc2onc(C(=O)N3CC[C@H]4CC[C@@H](C(=O)N(C)CC(=O)N[C@H](C(=O)N5C[C@H](O)C[C@H]5C(=O)N[C@@H](C)c5ccc(-c6scnc6C)cc5)C(C)(C)C)N4C(=O)[C@@H](NC(=O)c4ccc5ccc(C(F)(F)P(=O)(O)O)cc5c4)C3)c2c1 [Compound 27, (difluoro(7-(((5S,8S,10aR)-8-((2-(((S)-1-((2S,4R)-4-hydroxy-2-(((S)-1-(4-(4-methylthiazol-5-yl)phenyl)ethyl)carbamoyl)pyrrolidin-1-yl)-3,3-dimethyl-1-oxobutan-2-yl)amino)-2-oxoethyl)(methyl)carbamoyl)-3-(5-methylbenzo[d]isoxazole-3-carbonyl)-6-oxodecahydropyrrolo[1,2-a][1,5]diazocin-5-yl)carbamoyl)naphthalen-2-yl)methyl)phosphonic acid]	> 3	< 0.3	1 to 10			

The next lines start with results.

IC50 (pSTAT6; [2]) [µM]	IC50 (STAT6; [3]) [µM]	IC50 (STAT3; [4]) [µM]	SMILES	IC50 (pSTAT6; [1]) [µM]	IC50 (STAT6) [µM]	IC50 (STAT3) [µM]
0.1 to 1	< 0.3	> 10	Cc1ccc2onc(C(=O)N3CC[C@H]4CC[C@@H](C(=O)N(C)CCCCCCC#Cc5cccc6c5CN(C5CCC(=O)NC5=O)C6=O)N4C(=O)[C@@H](NC(=O)c4ccc5ccc(C(F)(F)P(=O)(O)O)cc5c4)C3)c2c1 (stereo partly drawn) [Compound 22, ((7-(((5S,8S,10aR)-8-((8-(2-(2,6-dioxopiperidin-3-yl)-1-oxoisoindolin-4-yl)oct-7-yn-1-yl)(methyl)carbamoyl)-3-(5-methylbenzo[d]isoxazole-3-carbonyl)-6-oxodecahydropyrrolo[1,2-a][1,5]diazocin-5-yl)carbamoyl)naphthalen-2-yl)difluoromethyl)phosphonic acid]			
> 3	< 0.3	1 to 10	Cc1ccc2onc(C(=O)N3CC[C@H]4CC[C@@H](C(=O)N(C)CCC#Cc5cccc6c5CN(C5CCC(=O)NC5=O)C6=O)N4C(=O)[C@@H](NC(=O)c4ccc5ccc(C(F)(F)P(=O)(O)O)cc5c4)C3)c2c1 (stereo partly drawn) [Compound 28, ((7-(((5S,8S,10aR)-8-((4-(2-(2,6-dioxopiperidin-3-yl)-1-oxoisoindolin-4-yl)but-3-yn-1-yl)(methyl)carbamoyl)-3-(5-methylbenzo[d]isoxazole-3-carbonyl)-6-oxodecahydropyrrolo[1,2-a][1,5]diazocin-5-yl)carbamoyl)naphthalen-2-yl)difluoromethyl)phosphonic acid]			
